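In this assay, cells in 96-well plates receive the compound at five concentrations for 48 hours. Endpoints are linearly interpolated between the surrounding concentrations. Here, GI50 denotes the concentration required for 50% inhibition of growth. TGI: total growth inhibition.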
Experiments:
Assay in all cases: inhibition of tumour cell growth, NCI panel, 48 h
SK-OV-3 ovarian = tested on: SK-OV-3 ovarian
UO-31 renal = tested on: UO-31 renal
OVCAR-5 ovarian = tested on: OVCAR-5 ovarian
COLO 205 colon = tested on: COLO 205 colon
NCI/ADR-RES ovarian = tested on: NCI/ADR-RES ovarian
OVCAR-8 ovarian = tested on: OVCAR-8 ovarian
CCRF-CEM leukemia = tested on: CCRF-CEM leukemia
MOLT-4 leukemia = tested on: MOLT-4 leukemia

SMILES | GI50 (SK-OV-3 ovarian) [µM] | TGI (SK-OV-3 ovarian) [µM] | GI50 (UO-31 renal) [µM] | TGI (UO-31 renal) [µM] | GI50 (OVCAR-5 ovarian) [µM] | TGI (OVCAR-5 ovarian) [µM] | GI50 (COLO 205 colon) [µM] | TGI (COLO 205 colon) [µM] | GI50 (NCI/ADR-RES ovarian) [µM] | TGI (NCI/ADR-RES ovarian) [µM] | GI50 (OVCAR-8 ovarian) [µM] | TGI (OVCAR-8 ovarian) [µM] | TGI (CCRF-CEM leukemia) [µM] | TGI (MOLT-4 leukemia) [µM] | GI50 (CCRF-CEM leukemia) [µM] | GI50 (MOLT-4 leukemia) [µM]
O=S(=O)(NC1=NCCN1C(=S)SN1CCn2c1nsc2=S)c1ccc(Oc2ccccc2)cc1 | > 100 | > 100 | > 100 | > 100 | > 100 | > 100 | > 100 | > 100 | 77.4 | > 100 | > 100 | > 100 |  |  |  | 
C=C1C(=O)O[C@H](c2ccoc2)C[C@@H]1[C@@]1(C)CCCC2(C)C(=O)OCC21 (stereo partly drawn) |  | > 100 |  | > 100 |  | > 100 |  | > 100 |  |  |  | > 100 | > 100 | > 100 |  | 
CCCCC(=O)N(c1ccc(Nc2c3ccccc3nc3cc([N+](=O)[O-])ccc23)cc1)S(C)(=O)=O | 27 | > 100 | 3.61 | 45.3 | 77.6 | > 100 | 12.7 | 36 | 27 | > 100 | 11 | 78.8 | > 100 | 28.4 | 3.65 | 3.53
O=C(Nc1nc(-c2ccc(Cl)cc2)cs1)c1cc(O)c(O)c(O)c1 | 538 | 3420 | 50.6 | 569 | 915 | > 5000 | 584 | 1810 | 183 | > 5000 | 150 | > 5000 | 760 | 840 | 79 | 130
COC(=O)c1c[nH]c2cc(OC(C)C)c(OC(C)C)cc2c1=O | > 100 | > 100 | > 100 | > 100 | > 100 | > 100 | > 100 | > 100 | > 100 | > 100 | > 100 | > 100 | > 100 | > 100 | > 100 | > 100
Nc1[nH]nc2nc(-c3cc(Cl)ccc3Cl)cc(-c3ccc(F)cc3)c12 |  |  | 13.8 | 34.7 | 24.3 | 59.8 | 16.5 | 34.1 | 23 | 59.9 | 14.3 | 59.5 | 11.3 | > 100 | 0.813 | 23.2
CC12OC(CC(O)C1O)n1c3ccccc3c3c4c(c5c6ccccc6n2c5c31)C(=O)N(CCN1CCOCC1)C4=O (stereo not drawn) | 1.19 | 4.13 | 1.04 | 5.77 | 2.32 | 9.65 | 0.606 | 4.51 | 1.82 | 8.31 | 1.43 | 8.71 | 8.95 | 4.26 | 1.16 | 0.23
C[C@@H](Nc1cc(F)cc(F)c1)c1cc(C(=O)N(C)C)cc2c(=O)cc(N3CCOCC3)oc12 | 2.18 | > 65.3 | 2.38 | > 100 | 4.16 | > 100 | 7.09 | 51.1 | > 83.9 | > 100 | 25.5 | > 100 | > 100 | 52.6 | 27.5 | 2.06
COc1cc(OCc2ccccc2)c2c(CCC(=O)O)cc(=O)oc2c1 (tested in a mixture with another compound) |  | > 100 |  | > 100 |  | > 100 |  | > 100 |  | > 100 |  | > 100 | > 100 | 90.4 |  | 
COc1cc2c(cc1OC)C(C(CCCCCC(CCC(C)C)C1NCCc3cc(OC)c(OC)cc31)CCC(C)C)NCC2 (stereo not drawn) | 1.58 | 2.99 | 1.59 | 3.22 | 1.69 | 3.17 | 0.225 | 0.464 | 1.44 | 2.94 | 1.01 | 2.52 | 2.13 |  | 0.489 | 
CN(C)c1ccc(/C=C(\C#N)c2cc3ccccc3[nH]2)cc1 | 2.28 | > 100 | 2.01 | > 100 | 3.8 | > 100 | 0.566 | 7.39 | 0.49 | > 100 | 2.35 | > 100 | 14.3 | > 100 | 0.813 | 0.906
CCc1nc(C)cn1C(=O)OCc1nc2nc(Cl)nc(N3CCOCC3)c2[nH]1 | 4.04 | 15.6 | 1.01 | 2.18 | 1.44 | 2.99 | 1.37 | 2.94 | 2.64 | 9.02 | 1.47 | 3.61 | 1.19 | 3.79 | 0.302 | 1.01
C=C1c2nc3ccccc3n2C=C(c2cccc(Cl)c2)N1Cc1ccc(OC)cc1 | 2.88 | > 100 | 1.92 | 33.7 | 5.84 | > 30.9 | 9.14 | 35.7 | 0.441 | 5.49 | 2.43 | > 57.3 | > 23.3 | 11.2 | 2.75 | 2.57
COc1ccc(OC)c(Nc2nc3nonc3nc2Nc2cccc(Br)c2)c1 | 0.486 | 4.1 | 0.622 | 53.7 | 2.56 | > 100 | 0.853 | 2.73 | 0.541 | 13.9 | 1.02 | > 100 | 17.2 | 12.1 | 0.608 | 0.809
NCCCNc1nc2ccccc2c2c(=O)c3cc(F)ccc3sc12 | 1.56 | 3.31 | 1.27 | 2.57 | 1.61 | 3.05 | 1.69 | 3.48 | 1.7 | 3.36 |  |  | 3.72 |  | 1.81 | 
COc1ccc(Cn2cc(COc3cc(/C=C/C(=O)c4cc(OC)c(OC)c(OC)c4)ccc3OC)nn2)cc1 | 3.02 | 9.18 | 4.71 | > 100 |  |  | 4.36 | > 100 | 3.49 | > 100 | 3.06 | > 100 | > 100 | > 100 | 3.14 | 4.67
Oc1ccc2c(=S)cc(-c3ccc(Br)cc3)oc2c1O | 2.6 | 8.5 | 1.02 | 6.66 | 5.83 | 78 | 10.7 | 24.5 | 1.43 | 6.05 | 2.28 | 8.92 | 8.03 | 6.77 | 2.53 | 2.16
Cc1ccc(N(C=O)c2c([N+](=O)[O-])cc([N+](=O)[O-])c3c2=[N+]([O-])CN=3)cc1 |  | > 100 |  | > 100 |  | > 100 |  | 68.1 |  | 92.2 |  | > 100 |  | 80.4 |  | 
CC(=O)OC1CCC2OOC1O2 (stereo not drawn) |  | > 100 |  | > 100 |  | > 100 |  | > 100 |  |  |  | > 100 | > 100 | > 100 |  | 
O=C1C=C(NCCO)c2nccc3c2c1nc1ccccc13 | 80.1 | > 100 | 24.6 | > 100 | 28.6 | > 100 | 14.8 | > 100 | 32 | > 100 | 40 | > 100 | > 100 | > 100 | 21.3 | 5.94
O=C(Nc1ccncc1)C(=O)c1cn(S(=O)(=O)c2cccc(Cl)c2)c2ccccc12 | 30.2 | > 100 | 11.7 | > 100 | 11.5 | > 100 | 24.8 | 70.3 | 2.86 | > 100 | 7.98 | > 100 |  | > 100 |  | 5.55
NC(=O)c1c(NC(=O)c2cccs2)sc2c1CCC(=O)C2 |  |  | 1.58 | 10.1 | 2.68 | 9.23 |  |  | 2.5 | 26.4 | 3.02 | > 100 | > 100 | 16.1 | 0.458 | 2.28
CCN(CC)CCNC(=O)c1cccc2c1-c1ccccc1C2=O | > 100 | > 100 | > 100 | > 100 | > 100 | > 100 | > 100 | > 100 | > 100 | > 100 | > 100 | > 100 | > 100 |  | > 100 | 
COc1cccc(Nc2ncnc3cc(NC(=O)CCl)ccc23)c1 | 1.58 | 3.15 | 1.11 | 2.43 | 1.61 | 3.02 |  |  |  |  | 1.88 | 5.16 | 2.16 |  | 0.392 | 
O=C(O)c1ccc2c(c1)C(=O)N(c1ccc(S(=O)(=O)c3ccc(N4C(=O)c5ccc(C(=O)O)cc5C4=O)cc3)cc1)C2=O |  | > 100 |  | > 100 |  | > 100 |  | > 100 |  |  |  | > 100 | > 100 | > 100 |  | 
